According to US8110654B2, “T cell epitope peptides of ovarian cancer anti-idiotypic antibody 6B11 and use thereof” (Peking University People;s Hospital, priority 2006, dated 2012):

Columns and labels:
HLA-A2 = HLA-A2 (Homo sapiens, UniProt P04439, D140Y/D185E/D98H/E176V/E277Q/G131W/G231S/I119V/I121R/I166T/I218V/L300P/L318F/N151K/N90K/P208A/P217A/Q86G/Q94H/R138H/R169H/T345S); test: T2 cell binding assay (HLA class I expression on T2 cells, confocal microscopy); type: cell-based; conditions: for binding capacity in T2 cell binding assay (in words): T2 cells co-incubated with peptide 24 hours; for T2 binding: T2 cells co-incubated with peptide (0.3, 3, 30 μg/ml) 24 hours, HLA class I surface expression; on T2 binding: key: +++: high binding capacity; ++: moderate binding capacity; +: low binding capacity
Method: The peptides obtained by […] method and the VH CDR1 and VL CDR2 region peptides were subject to T2 cell binding assay. T2 cells were co-incubated with each peptides in different concentrations (0.3 μg/ml, 3 μg/ml and 30 μg/ml) for 24 hours and then co-incubated with anti-human MHC class I antibodies. The expression profile of HLA class I molecules on the surface of T2 cells was analyzed by confocal microscopy. […] They were synthesized together with the CDR peptides of the anti-idiotype antibody for screening CTL epitope peptides.

[1] = tested on: anti-idiotype antibody 6B11-CTLs (reacting cells); test: BrdU ELISA cell proliferation assay, 6B11-CTLs stimulated by loaded DCs; type: cell-based, human
Method: Peripheral blood was drawn from HLA-A2 healthy human subjects. After EDTA anti-coagulation treatment, peripheral blood monocytes were isolated using Ficoll lymphocyte isolation 1×10^7 monocytes/well and AIM-V culture medium (containing 5% human AB serum) was added to 1 ml. The cells were incubated at 37° C. under 5% CO2 for 2 hours. Non-adherent cells were drawn and removed as lymphocytes and stored in liquid nitrogen for further use. The adherent cells were monocytes.
The monocytes isolated from said 6-well plates were added with 2 ml AIM-V culture medium (containing 5% human AB serum)/well. Recombinant human granulocyte-macrophage colony-stimulating factor (rh GM-CSF) and recombinant human interleukin-4 (rh IL-4) were added simultaneously both to a final concentration of 1000 U/ml, for induced incubation. On Day 4, 1 ml AIM-V culture medium (containing 5% human AB serum) was supplemented, and rh GM-CSF and rh IL-4 of the same concentration as mentioned above were also supplemented. On Day 6, 1 ml AIM-V culture medium (containing 5% human AB serum) was supplemented again. At the same time, recombinant human tumor necrosis factor-α (rh TNF-α), recombinant human α-interferon (rh IFN-α) and recombinant human interleukin-6 (rh IL-6) were added, all to a final concentration of 1000 U/ml, and prostaglandin E2 (PGE2) was added to a final concentration of 1 μg/ml. Co-incubation lasted 24 hours for inducing mature DCs.
On Day 4 during incubation of DCs, the culture medium, rh GM-CSF and rh IL-4 were supplemented. At the same time, anti-idiotype antibody 6B11 was added to a final concentration of 40 μg/ml for loading. The loaded cells were stored as stimulating cells for further use.
Mature DCs induced were harvested, washed and adjusted to a concentration of 1×10^6 cells/ml. Six CDR peptides (SEQ ID NOs: 1-6, see Table 1, artificially synthesized) in a final concentration of 30 μg/ml respectively, or each peptide of 30 μg/ml together with keyhole limpet hemocyanin (KLH) of 5 μg/ml were added for loading. The loaded cells were stored as stimulating cells for further use.
The freeze-stored autologous lymphocytes were stimulated by DCs loaded with anti-idiotype antibody 6B11 (anti-Id DCs), to obtain CTLs specific to anti-idiotype antibody 6B11 (6B11-CTLs). One period consists of 7 days. On Day 3 of every period, 10 U/ml recombinant human interleukin-2 (rh IL-2) was supplemented. Finally, anti-idiotype antibody 6B11-CTLs were obtained after a one- or three-period stimulation.
All the CDR peptides of anti-idiotype antibody 6B11 (6 peptides) were synthesized artificially. The peptides were screened for Th epitope peptides by cell proliferation assay. Anti-idiotype antibody 6B11-CTLs stimulated for one period were used as reacting cells. DCs loaded with anti-idiotype antibodies and peptides respectively were used as stimulating cells. The reacting cells and the stimulating cells (in the ratio of 10:1) were co-incubated at 37° C. under 5% CO2 for 120 hours and then subject to BrdU ELISA cell proliferation assay. Each well contained 100 μl AIM-V culture medium and 1×10^5 anti-idiotype antibody 6B11-CTLs. Within the last 2 hours during stimulation, 10 μl BrdU labeling solution was added into each well and the fluid in the wells was removed. The cells were dried at 60° C. for 1 hour. 200 μl of FixDenat solution was added into each well. The reaction continued for 30 minutes at 37° C. for fixing DNA in the lymphocytes. Finally, 100 μl BrdU monoclonal antibody was added into each well for 90 minutes. The absorption value at 450 nm was read by an automatic microplate reader after substrate chromogenic reaction for detecting the proliferation of the cells. The group of DCs without loading and the group of phytohaemagglutinin (PHA) were used as negative and positive control respectively. […] Other peptides could not stimulate the proliferation of the reacting cells. […]

CD4 T cells = test: BrdU cell proliferation assay after magnetic bead sorting of CD4 T cells; type: cell-based, human; conditions: reacting cells sorted for CD4 T cells by magnetic beads
Method: All the CDR peptides of anti-idiotype antibody 6B11 (6 peptides) were synthesized artificially. The peptides were screened for Th epitope peptides by cell proliferation assay. Anti-idiotype antibody 6B11-CTLs stimulated for one period were used as reacting cells. DCs loaded with anti-idiotype antibodies and peptides respectively were used as stimulating cells. The reacting cells and the stimulating cells (in the ratio of 10:1) were co-incubated at 37° C. under 5% CO2 for 120 hours and then subject to BrdU ELISA cell proliferation assay. Each well contained 100 μl AIM-V culture medium and 1×10^5 anti-idiotype antibody 6B11-CTLs. Within the last 2 hours during stimulation, 10 μl BrdU labeling solution was added into each well and the fluid in the wells was removed. The cells were dried at 60° C. for 1 hour. 200 μl of FixDenat solution was added into each well. The reaction continued for 30 minutes at 37° C. for fixing DNA in the lymphocytes. Finally, 100 μl BrdU monoclonal antibody was added into each well for 90 minutes. The absorption value at 450 nm was read by an automatic microplate reader after substrate chromogenic reaction for detecting the proliferation of the cells. The group of DCs without loading and the group of phytohaemagglutinin (PHA) were used as negative and positive control respectively. […] Other peptides could not stimulate the proliferation of the reacting cells.
For further analyzing the proliferation of the cells, stimulating cells were blocked by anti-human MHC class II antibodies, for evaluating the effect of Th epitope peptides. Firstly, the optimal application concentration of MHC class II antibodies was determined by experiments to be 1:20 dilution (FIG. 3). […] Other peptides could not trigger cell proliferation, no matter whether MHC class II antibodies were applied or not (FIG. 4). […] The reacting cells were subject to magnetic bead sorting of CD4 T cells.

| binding capacity in T2 cell binding assay (in words) (HLA-A2) | T2 binding (HLA-A2) | Substance | proliferation after blocking by MHC class II antibodies ([1]; anti-human MHC class II antibodies 1:20 dilution) | proliferation of reacting cells 6B11-CTLs ([1]; stimulating DCs loaded with peptide 30 μg/ml or 6B11 40 μg/ml, 120 hours, BrdU, A450) | proliferation of sorted CD4 T cells (CD4 T cells) |
| --- | --- | --- | --- | --- | --- |
| low binding capacity | + | IALITTKIA [predicted 9-mer from VH CDR3] | – | – | – |
| high binding capacity | +++ | NNKYYNTAL [predicted 9-mer from VH CDR2] | – | – | – |
| – | – | phytohaemagglutinin [PHA, reference compound] | blocked dramatically | significant proliferation | could trigger the proliferation |
| low binding capacity | + | VHSNGNTYL [predicted 9-mer from VL CDR1] | – | – | – |
| low binding capacity | + | LITTKIAWY [predicted 9-mer from VH CDR3] | – | – | – |
